Reference: patent US10906878B2, “Kinase inhibitors for the treatment of disease” (Dana-Farber Cancer Institute, Inc., priority 2013, dated 2021)

How the values were obtained:
Format in all cases: cell-based
[1] = target: EGFR L718Q/L858R Ba/F3 cells (Homo sapiens (Human), UniProt P00533, L718Q/L858R); assay: Ba/F3 cell growth inhibition (MTS assay), EGFR L858R/L718Q; settings: for EGFR activity (% Control, 100 nM drug) L858R/L718Q: Table F
[2] = target: EGFR Del/T790M Ba/F3 cells (Homo sapiens, UniProt P00533, T790M, cells depend on it, form not given); assay: Ba/F3 cell growth inhibition (MTS assay), EGFR Del/T790M; settings: for EGFR activity (% Control, 100 nM drug) DEL/T790M: Table F; for EGFR activity (% Control, 100 nM drug) Del/T790M: Table G
Description: (§1) The specific cDNAs encoding the oncogenic alterations (EGFR: Del 19, L858R, L718Q, L844V, Del/T790M, L858R/T790M, Del 19/L718Q, Del 19/L844V, Del 19/T790M/L718Q and L858R/T790M/L718Q; FGFR: TEL-FGFR1, TEL-FGFR2, TEL-FGFR1 V561M, TEL-FGFR2 V561M; ALK: EML4-ALK; ROS1: CD74-ROS1) were cloned into the pDNA-Dual (BD Biosciences) vector using standard molecular biology techniques. Mutations were introduced using site-directed mutagenesis (Agilent) with mutant specific primers according to the manufacturer's instructions. All constructs were confirmed by DNA sequencing. The constructs were introduced into Ba/F3 cells using retroviral infection. Polyclonal cell lines were established by puromycin selection and subsequently cultured in the absence of interleukin-3 (IL-3). Uninfected Ba/F3 cells or cell lines expressing green fluorescent protein (GFP) were used as controls.
(§2) Growth and inhibition of growth was assessed by MTS assay. This assay, a colorimetric method for determining the number of viable cells, is based on the bioreduction of 3-(4,5-dimethylthiazol-2-yl)-5-(3-carboxymethoxyphenyl)-2-(4-sulfophenyl)-2H-tetrazolium (MTS) by cells to a formazan product that is soluble in cell culture medium, can be detected spectrophotometrically and was performed according to the manufacturer's recommended conditions. Ba/F3 cells were exposed to treatment for 72 hours and the number of cells used per experiment determined empirically to assure linear growth kinetics over that time period. All experimental points were set up in six to twelve wells and all experiments were repeated at least three times. […] The curves were fitted using a non-linear regression model with a sigmoidal dose response.

EGFR L858R Ba/F3 cells = EGFR L858R Ba/F3 cells (Homo sapiens (Human), UniProt P00533, L858R); assay: Ba/F3 cell growth inhibition (MTS assay), EGFR L858R
Description: as §1, §2

[3] = target: EGFR L858R/T790M Ba/F3 cells (Homo sapiens (Human), UniProt P00533, L858R/T790M); assay: Ba/F3 cell growth inhibition (MTS assay), EGFR L858R/T790M
Description: as §1, §2

EGFR Del Ba/F3 cells = EGFR Del Ba/F3 cells (Homo sapiens, UniProt P00533, cells depend on it, form not given); assay: Ba/F3 cell growth inhibition (MTS assay), EGFR Del
Description: as §1, §2

[4] = target: EGFR L858R/T790M/L718Q Ba/F3 cells (Homo sapiens (Human), UniProt P00533, L718Q/L858R/T790M); assay: Ba/F3 cell growth inhibition (MTS assay), EGFR L858R/T790M/L718Q; settings: for EGFR activity (% Control, 100 nM drug) L858R/T790M/L718Q: Table F
Description: as §1, §2

SMILES	EGFR activity (% Control, 100 nM drug) L858R/L718Q [1]	EGFR activity (% Control, 100 nM drug) DEL/T790M [2]	EGFR activity (% Control, 100 nM drug) L858R (EGFR L858R Ba/F3 cells; Table F)	EGFR activity (% Control, 100 nM drug) L858R/T790M ([3]; Table F)	EGFR activity (% Control, 100 nM drug) Del (EGFR Del Ba/F3 cells; Table F)	EGFR activity (% Control, 100 nM drug) L858R/T790M/L718Q [4]	EGFR activity (% Control, 100 nM drug) Del/T790M [2]	EGFR activity (% Control, 100 nM drug) L858R (EGFR L858R Ba/F3 cells; Table G)	EGFR activity (% Control, 100 nM drug) L858R/T790M ([3]; Table G)	EGFR activity (% Control, 100 nM drug) Del (EGFR Del Ba/F3 cells; Table G)	further results
C=CC(=O)Nc1cccc(N(C(=O)NCc2ccccc2)c2cc(NC)ncn2)c1 [Compound 15A]	81 % Control	107 % Control	3 % Control	48 % Control	47 % Control	86 % Control					IC50 ([1]; Assay 1, L718Q/L858R, read-out: EGFR Ba/F3 cells IC 50 (nM) Assay 1 L718Q/L858R): 2150 nM; IC50 ([2]; Assay 1, Del/T790M, read-out: EGFR Ba/F3 cells IC 50 (nM) Assay 1 Del/T790M): 842 nM; IC50 (EGFR L858R Ba/F3 cells; Assay 1, L858R, read-out: EGFR Ba/F3 cells IC 50 (nM) Assay 1 L858R): 17.7 nM; IC50 ([3]; Assay 1, L858R/T790M, read-out: EGFR Ba/F3 cells IC 50 (nM) Assay 1 L858R/T790M): 376 nM; IC50 (EGFR Del Ba/F3 cells; Assay 1, Del, read-out: EGFR Ba/F3 cells IC 50 (nM) Assay 1 Del): 91.9 nM; IC50 ([4]; Assay 1, T/L/L718Q, read-out: EGFR Ba/F3 cells IC 50 (nM) Assay 1 T/L/L718Q): 3260 nM
C=CC(=O)Nc1ccc(OC)c(Nc2cc(N(C)C(=O)Nc3ccc(F)c(Cl)c3)ncn2)c1 [Compound 18A]	88 % Control	84 % Control	1 % Control	85 % Control	30 % Control	92 % Control					
C=CC(=O)N1CCC[C@@H]1C(=O)Nc1ccc(OC)c(Nc2cc(N(C)C(=O)NCc3ccccc3)ncn2)c1 [Compound 24A]							101 % Control	84 % Control	108 % Control	95 % Control	
COc1ccc(NC(=O)/C=C/CN(C)C)cc1Nc1ncc2c(n1)N(C)C(=O)N(c1ccccc1)C2 [Compound 7A, (E)-4-(dimethylamino)-N-(4-methoxy-3-((8-methyl-7-oxo-6-phenyl-5,6,7,8-tetrahydropyrimido[4,5-d]pyrimidin-2-yl)amino)phenyl)but-2-enamide]	96 % Control	94 % Control	5 % Control	102 % Control	35 % Control	106 % Control					
C=CC(=O)Nc1cccc(N(C(=O)Nc2ccc(F)c(Cl)c2)c2cc(Nc3ccc(N4CCN(C)CC4)cc3OC)ncn2)c1 [Compound 22A]	84 % Control	84 % Control	3 % Control	4 % Control	3 % Control	106 % Control					
C=CC(=O)N1CC[C@@H](CN(C(=O)Nc2ccccc2)c2cc(Nc3ccc(N4CCN(C)CC4)cc3OC)ncn2)C1 [Compound 32A]							106 % Control	99 % Control	110 % Control	104 % Control	
C=CC(=O)Nc1cccc(Nc2cc(N(C)C(=O)Nc3ccc(F)c(Cl)c3)ncn2)c1 [Compound 19A]	74 % Control	71 % Control	100 % Control	101 % Control	79 % Control	99 % Control					
COc1cc2ncnc(N(C)C(=O)Nc3ccccc3)c2cc1NC(=O)[C@@H]1CCCN1C(=O)CCl [Compound 28A]							83 % Control	94 % Control	97 % Control	102 % Control	
C=CC(=O)Nc1ccc(OC)c(Nc2cc(N(C)C(=O)Nc3ccccc3)ncn2)c1 [Compound 12A]	47 % Control	117 % Control	1 % Control	48 % Control	0 % Control	84 % Control					
C=CC(=O)N1CCC[C@H]1C(=O)Nc1cc2c(N(C)C(=O)NCc3ccccc3)ncnc2cc1OC [Compound 5A, (S)-1-acryloyl-N-(4-(3-benzyl-1-methylureido)-7-methoxyquinazolin-6-yl)pyrrolidine-2-carboxamide]							110 % Control	107 % Control	96 % Control	100 % Control	
C=CC(=O)Nc1cccc(Nc2cc(N(C(=O)NCc3ccccc3)c3ccc(N4CCN(C)CC4)cc3)ncn2)c1 [Compound 30A]							104 % Control	10 % Control	103 % Control	94 % Control	
C=CC(=O)N1CC[C@H](CN(C(=O)Nc2ccccc2)c2cc(Nc3ccc(N4CCN(C)CC4)cc3OC)ncn2)C1 [Compound 33A]							109 % Control	101 % Control	106 % Control	102 % Control	
C=CC(=O)N1CCC[C@H]1C(=O)Nc1cc2c(N(CCOC)C(=O)NCc3ccccc3)ncnc2cc1OC [Compound 31A]							110 % Control	108 % Control	112 % Control	111 % Control	
C=CC(=O)N1CCC[C@H]1C(=O)Nc1ccc(OC)c(Nc2cc(N(C)C(=O)NCc3ccccc3)ncn2)c1 [Compound 23A]							102 % Control	99 % Control	111 % Control	106 % Control	
C=CC(=O)Nc1cccc(Nc2cc(N(C(=O)Nc3ccccc3)c3ccc(N4CCN(C)CC4)cc3)ncn2)c1 [Compound 26A]							91 % Control	11 % Control	100 % Control	87 % Control	
C=CC(=O)N1CCC[C@H]1C(=O)Nc1cc2c(N(C)C(=O)Nc3ccccc3)ncnc2cc1OC [Compound 27A]							76 % Control	87 % Control	102 % Control	95 % Control	
